{
  "source": "paper PMC7181660",
  "about": "“A novel specific PERK activator reduces toxicity and extends survival in Huntington's disease models” (Scientific Reports, 2020)",
  "key": {"eIF2α-P": {"test_system": "eIF2α-P", "experiment": "Brain striatum immunofluorescence of eIF2α-P / total eIF2α", "format": "in vivo, mice", "settings": "week 4 after pump implantation", "experimental": "Under anesthesia, animals were perfused with 4% PFA (formaldehyde in phosphate-buffered saline (PBS)) and the brains were removed and soaked in 4% PFA overnight. Then, brains were incubated overnight in 30% sucrose solution and frozen in OCT compound Tissue-Tek by using dry ice. Sections (10 µm) of the striatum were obtained by cryostat. Brain sections were processed for immunochemistry with the kind help of Daniel Frenkel. They were washed with PBS for 10 minutes, incubated in 0.5% triton-X-100 for 10 minutes and then in blocking solution containing 1% bovine serum albumin (BSA), 10% normal goat serum and 0.25% triton for one hour at room temperature. The samples were rinsed with PBS and incubated overnight at 4 °C with the selected primary antibody diluted in blocking solution (eIF2α-mouse [1:400] and phosphorylated eIF2α-rabbit [1:400]). […] After washing with PBS, samples were placed in DAPI (4′,6-diamidino-2-phenylindole) diluted in PBS for 10 minutes, mounted and examined by confocal microscope Zeiss LSM-510, 3 slides were analysed from each subject.\nSignal quantification and cell counting were done using the ImageJ program. The value obtained for the phosphorylated eIF2α signal was divided by the total eIF2α signal in the same image. […] Statistical significance was determined at P < 0.05."}, "[1]": {"experiment": "Pharmacokinetics and BBB penetration after single IP injection", "format": "in vivo", "settings": "mice, single IP 10 mg/kg"}},
  "note": "Like-named read-outs stand apart in the source and are kept apart here.",
  "data": [
    {"smiles": "CN(/N=C\\c1ccc(O)c(O)c1)c1nc(-c2ccccc2)cc(-c2ccccc2)n1", "note": "[MK-28]", "values": [
      {"measurement": "increase of eIF2α-P levels in striatum", "setting": "eIF2α-P; TG mice", "result": "~ 6 fold"},
      {"measurement": "increase of eIF2α-P levels in striatum", "setting": "eIF2α-P; WT mice", "result": "~ 7 fold"},
      {"measurement": "time of Cmax in plasma after injection", "setting": "[1]", "result": 40, "unit": "min"},
      {"measurement": "time of Cmax in the brain after injection", "setting": "[1]", "result": 40, "unit": "min"},
      {"measurement": "Kp", "setting": "[1]; mouse, brain, read-out: AUC in the brain as % of that in the plasma", "result": 0.22},
      {"measurement": "Cmax", "setting": "[1]; mouse, brain, read-out: Cmax in the brain", "result": 57, "unit": "ng/g"},
      {"measurement": "half-life", "setting": "[1]; mouse, brain, read-out: half-life in the brain", "result": 80, "unit": "min"},
      {"measurement": "Cmax", "setting": "[1]; mouse, plasma, read-out: Cmax in plasma", "result": 105, "unit": "ng/mL"},
      {"measurement": "half-life", "setting": "[1]; mouse, plasma, read-out: half-life in plasma", "result": 30, "unit": "min"}
    ]}
  ]
}
